# Assay results as given in patent US20150018409A1, “CHIMERIC POLYPEPTIDES AND THEIR USE” (ADRIACELL S.P.A., priority 2003, published 2015).
# What was measured:
# U2OS cells [1] = assay: FACS analysis of DNA content / cell cycle distribution; format: cell-based, human; conditions: for interaction with SCPVUTAT on the cell cycle: simultaneous incubation with SCPVUTAT
# Procedure: The distribution of the various phases of the cell cycle of the protein transduced cells was analysed by FACS analysis. Distribution of the DNA content of the cell populations was detected. 2n represents a diploid DNA equivalent (non replicated; G1 phase), 4n represents the tetraploid DNA equivalent (replicated; G2/M phase). For the FACS analysis the cells were separated employing the DDM mode that allows to estimate DNA content of a single cell. U2OS cells were grown for 24 hours (upper row) or 48 hours (lower row) in the presence of increasing amounts of […] (10 nM, 50 nM, 100 nM) as indicated and with only one addition of proteins; non treated cells (control); cells treated with a nuclease impaired derivative of […] (SC34, 100 nM). All the histograms shown represent a measure of DNA content relative to the cell numbers as indicated only on the upper right panel.
# U2OS cells were incubated with […] (10 nM, panel B), or with H2O2 (10 μM, panelC), or both ([…], 10 nM; H2O2, 10 μM; panel D), or with no agent as a control (panel A). Further treatment cells were analysed in FACS for DNA content; the percentage of the various cell cycle phases are indicated at the bottoms of the individual histograms.
# Finally, to confirm that the DSB's that are produced in vivo also induce perturbations in the cell cycle, DNA content in the various phases of the cell cycle was analysed by Fluorescence Activated Cell Sorting (FACS) after transduction of the proteins of the invention. After the treatment with diverse proteins at various concentrations and during different timepoints, the cells were fixed in 70% ethanol, treated with RNAse A and stained with propidium […].
# The FACS analysis was done using a FACSCalibur™ (Becton Dickinson) apparatus. The obtained data were evaluated with the CellQuest™ software program package. At least 3×10^4 single events for every sample were analysed in the DDM mode. The statistic analysis of the DNA content distribution during the cell cycle was done with the MODFIT LT™ software program package. A 2N diploid DNA content correspond to cells in the G1 phase of the cell cycle, 4N represents a relative tetraploid DNA content and corresponds to G2 and/or M phase of the cell cycle. An intermediate DNA content represents S phase corresponding to a population actively replicating DNA during the cell cycle and a content that is below diploid 2N represents cells in apoptosis.
# U2OS cells were incubated with 10 nM […] and with 10 μM H2O2 alone or in combination ant the cell cycle profile was analysed by FACS.
# [2] = tested on: MRC-5 cells (ATM positive); conditions: SCPVUTAT 100 nM or HU 1 mM
# Procedure: [sequence] dependent Ser^15 phosphorylation of p53. The ATM positive cell-line MRC5 was treated with [sequence] (100 nM, SC) or with hydroxyurea (1 mM, HU) for the time periods as indicated; as a control non treated cells were used (O).
# (§1) P53 phosphorylation on Ser15 in response to [sequence] treatment was assayed in ATM positive or negative cell lines (MRC-5 and AT-5 respectively). For comparison parallel experiments were done with hydroxyurea (HU). […] For this immunoblotting experiments were done with extracts after treatment, by using specific antibodies to a phosphorylated Ser15 in p53 for specific detection.
# [3] = tested on: AT-5 cells (ATM negative); conditions: SCPVUTAT 100 nM or HU 1 mM
# Procedure: AT-5 cells, negative for ATM were treated with [sequence]
# as §1
# HCT116 (p53(+/+)) cells = assay: Cell cycle arrest point: nuclear morphology and immunofluorescence of cyclin B1 and Cdc25C; format: cell-based, human; conditions: 30 hours; SCPVUTAT 100 nM or Taxol 0.2 μg/ml
# Procedure: Microscopic analysis of the HCT116 (p53(+/+)) cells not treated, or treated with […] (100 nM) for 30 hours, or with taxol (0.2 μg/ml). Immunofluorescence analysis was done with primary antibodies specific for cyclin B1 or specific for Cdc25C and coloured with secondary conjugates of FITC (green, cyclinB1) or TRITC (red, Cdc25C).
# Moreover, the initiation of mitosis, i.e. induced with the microtuble blocking agents Nocodazol or Taxol, can be detected by the nuclear activity of the Cdc2 kinase and also by nuclear localisation of Cdc25C. These assays allow to dissect the exact point of cell cycle arrest after […] treatment and this further allows to detect disturbations in this phase of the cell cycle relative to a positive control. Similar experiments are well known in the art also for other phases of the cell cycle. The assay shown in FIG. 7A and the immunofluorescence analysis shown in FIG. 14 show examples for these types of experiments.
# HCT116 (p53(+/+)) not treated, or treated for 30 hours with […] (100 nM), or with Taxol (0.2 μg/ml) were fixated with 3% PFA and treated with specific antibodies to cyclin B1 or for Cdc25C. The immunofluorescence was analysed with the microscope (see FIG. 14) with specific primary antibodies to cyclin B1 conjugated to FITC labelled secondary antibodies (green) or with specific primary antibodies to Cdc25C conjugated to TRITC labelled secondary antibodies (red).
# U2OS cells [4] = assay: Histone H2AX Ser139 phosphorylation, single cell fluorescence microscopy; format: cell-based, human; conditions: Wortmanin 50 μM with SCPVUTAT 100 nM, 60 minutes
# Procedure: U2OS cells were treated with [sequence] (100 nM, central column) for 60 minutes, in addition treatment was done with Wortmanin (50 μM, WM, right column), or with no agent as a control (left column). After treatment cells were stained with specific antibodies to H2AX-Ser-139 phosphorylated (red) or for Histone 2B (served as a control, green) and analysed on a single cell level by fluorescence microscopy.
# As another example for a phosphorylation of a substrate of ATM in response to the object of the invention, histone H2AX Ser^139 phosphorylation was analysed. […] U2OS cells were treated for 60 minutes with [sequence], fixed and analysed for histone H2AX Ser^139 phosphorylation. Cells were analysed with a specific antiserum to phospho-Ser 139 on histone H2AX and analysed in the microscope on a single cell basis. As a control histone 2B was analysed.
# [5] = tested on: U2OS osteosarcoma cells and IMR90 primary fibroblasts; assay: Protein transduction of the chimeric proteins (immunoblot and immunofluorescence with PvuII antibody); format: cell-based, human
# Procedure: For a comparison aliquots of the supernatants of the cell culture taken before extract preparation were included in the analysis (upper panel, SUPERNATANT).
# In addition DNA costaining was obtained with propidium J after RNAse A digest (red, upper panel).
# The transduction capacity of the chimeric proteins was assayed in U2OS osteosarcoma cells and in the IMR90 primary fibroblasts cells. The cells were grown in DMEM containing 10% FCS and treated with the proteins of the invention in the same medium, in general in the presence of antibiotics. After 10 minutes of incubation of the cells with increasing quantities of the fusion protein […] (1, 10, 50, 100, 200 nM) and with the protein SCPVU (single chain PvuII without TAT) and SC34 as a control (prepared as described for […] except that the enzyme PvuII contains a mutant in position 34) cell extracts were prepared, separated on SDS-PAGE and assayed by immuno-blot analysis with a monospecific antibody to PvuII. Further, uptake was assayed after 30 min of incubation by immuno-fluorescence analysis using PvuII specific antibodies and nuclear costaining with propidium iodide.
# ATM, ATR and TOR = conditions: Sarkaria et al., 1999; target not stated with the value; cited from earlier work
smiles,measurement,setting,value
OO [H2O2],change of G2 phase,U2OS cells [1]; 10 μM H2O2 alone,no increase in G2
same,interaction with SCPVUTAT on the cell cycle,U2OS cells [1],synergistic effect
"NC(=O)NO [HU, hydroxyurea, reference compound]",p53-Ser15 phosphorylation,[2],comparable however consistently higher
same,p53-Ser15 phosphorylation,[3],comparable however consistently higher
"CC(=O)O[C@H]1C(=O)[C@@]2(C)[C@H]([C@H](OC(=O)c3ccccc3)[C@]3(O)C[C@H](OC(=O)[C@H](O)[C@@H](NC(=O)c4ccccc4)c4ccccc4)C(C)=C1C3(C)C)[C@]1(OC(C)=O)CO[C@@H]1C[C@@H]2O [Taxol, reference compound]",cell cycle stop from localisation of Cdc25C and cyclin B,HCT116 (p53(+/+)) cells,stop in M phase
"COC[C@H]1OC(=O)c2coc3c2[C@@]1(C)C1=C(C3=O)[C@@H]2CCC(=O)[C@@]2(C)C[C@H]1OC(C)=O [Wortmanin, reference compound]",effect on SCPVUTAT induced histone H2AX Ser139 phosphorylation,U2OS cells [4],antagonist for this reaction
C[C@@]1(CO)[C@H](O)CC[C@@]2(C)[C@H]1CC[C@H]1C[C@@H]3C[C@@]12CC[C@]3(O)CO [aphidicolin],interaction with SCPVUTAT on the cell cycle,U2OS cells [1],no synergistic effect was observed
Cn1c(=O)c2c(ncn2C)n(C)c1=O [caffeine],influence of caffeine on the transduction capacity of SCPVUTAT,[5],nor does it influence the transduction capacity
same,effect of caffeine on the SCPVUTAT cell cycle stop,"U2OS cells [1]; 100 nM SCPVUTAT in combination with 2 mM caffeine, 30 hours",antagonist to the effect of SCPVUTAT in vivo
same,cell cycle effect of caffeine alone,U2OS cells [1]; 2 mM caffeine,moderate delay in the G1 phase
same,IC50,"ATM, ATR and TOR",< 1000 µM
